# Read-outs that look alike come from different tables or passages of the source.
# Key:
# Assay in all cases: Kinase panel profiling at 1 µmol/L (MSA or IMAP), percentage inhibition
# Assay type in all cases: biochemical
# [1] = target: panel of 255 wild-type kinases (Homo sapiens, UniProt P29376); settings: read-out: %-inhibition at 1 µmol/L, LTK
# [2] = target: T1, panel of 255 wild-type kinases (Homo sapiens, UniProt P42681); settings: read-out: %-inhibition at 1 µmol/L, TXK
# T1 sequence (P42681 1-527): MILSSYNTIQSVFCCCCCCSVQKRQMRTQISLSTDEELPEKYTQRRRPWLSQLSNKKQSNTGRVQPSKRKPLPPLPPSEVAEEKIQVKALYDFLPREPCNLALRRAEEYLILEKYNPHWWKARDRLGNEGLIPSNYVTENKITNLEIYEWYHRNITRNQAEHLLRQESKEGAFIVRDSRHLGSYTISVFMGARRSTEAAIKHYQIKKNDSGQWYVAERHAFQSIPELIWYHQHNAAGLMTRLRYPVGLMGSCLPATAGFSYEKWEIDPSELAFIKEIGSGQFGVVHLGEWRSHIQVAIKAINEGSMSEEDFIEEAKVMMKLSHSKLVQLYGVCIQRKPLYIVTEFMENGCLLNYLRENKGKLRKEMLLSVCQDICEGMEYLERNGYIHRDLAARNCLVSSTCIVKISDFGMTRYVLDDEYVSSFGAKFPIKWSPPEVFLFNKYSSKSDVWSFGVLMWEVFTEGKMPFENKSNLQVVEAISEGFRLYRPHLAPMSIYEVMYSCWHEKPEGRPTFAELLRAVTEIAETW
# [3] = target: T2, panel of 255 wild-type kinases (Homo sapiens, UniProt Q12866); settings: read-out: %-inhibition, MER
# T2 sequence (Q12866 21-999): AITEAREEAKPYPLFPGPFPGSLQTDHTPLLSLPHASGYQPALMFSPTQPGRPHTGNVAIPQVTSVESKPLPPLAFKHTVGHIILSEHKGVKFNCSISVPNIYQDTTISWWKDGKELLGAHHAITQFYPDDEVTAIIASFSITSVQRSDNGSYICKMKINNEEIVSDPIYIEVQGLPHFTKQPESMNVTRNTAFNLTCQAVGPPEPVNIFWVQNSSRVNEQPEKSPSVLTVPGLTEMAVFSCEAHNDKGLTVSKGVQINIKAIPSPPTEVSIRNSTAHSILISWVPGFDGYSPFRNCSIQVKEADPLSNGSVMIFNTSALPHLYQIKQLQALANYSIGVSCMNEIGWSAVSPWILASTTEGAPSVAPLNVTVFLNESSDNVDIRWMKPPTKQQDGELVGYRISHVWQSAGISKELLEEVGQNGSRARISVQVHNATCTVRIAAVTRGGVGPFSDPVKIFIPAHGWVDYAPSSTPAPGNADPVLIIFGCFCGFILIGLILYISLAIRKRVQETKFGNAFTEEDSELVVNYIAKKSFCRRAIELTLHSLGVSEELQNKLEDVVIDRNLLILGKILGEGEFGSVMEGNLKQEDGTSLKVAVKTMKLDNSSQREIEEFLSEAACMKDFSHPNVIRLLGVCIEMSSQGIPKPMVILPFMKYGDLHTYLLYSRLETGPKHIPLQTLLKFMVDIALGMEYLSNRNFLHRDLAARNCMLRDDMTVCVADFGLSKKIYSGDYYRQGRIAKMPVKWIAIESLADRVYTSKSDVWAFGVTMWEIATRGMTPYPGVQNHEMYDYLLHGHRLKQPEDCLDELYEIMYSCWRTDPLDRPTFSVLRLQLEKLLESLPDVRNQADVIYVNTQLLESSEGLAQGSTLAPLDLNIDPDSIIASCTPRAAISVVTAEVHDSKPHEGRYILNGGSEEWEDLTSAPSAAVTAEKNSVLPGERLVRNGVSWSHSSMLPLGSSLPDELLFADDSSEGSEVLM
# [4] = target: T3, panel of 255 wild-type kinases (Homo sapiens, UniProt Q96PF2); settings: read-out: %-inhibition at 1 µmol/L, TSSK2
# T3 sequence (Q96PF2 1-358): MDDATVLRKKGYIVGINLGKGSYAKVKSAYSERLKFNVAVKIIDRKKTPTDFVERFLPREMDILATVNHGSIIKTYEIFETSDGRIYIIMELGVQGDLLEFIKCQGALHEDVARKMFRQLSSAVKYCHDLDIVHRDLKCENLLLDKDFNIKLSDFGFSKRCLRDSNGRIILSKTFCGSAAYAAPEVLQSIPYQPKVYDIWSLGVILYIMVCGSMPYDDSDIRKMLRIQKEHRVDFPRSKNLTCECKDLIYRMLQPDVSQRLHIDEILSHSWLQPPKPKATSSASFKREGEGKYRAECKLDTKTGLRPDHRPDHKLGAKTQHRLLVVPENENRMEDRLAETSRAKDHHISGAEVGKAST
# [5] = target: T4, panel of 255 wild-type kinases (Homo sapiens, UniProt Q9BZL6); settings: read-out: %-inhibition at 1 µmol/L, PKD2
# T4 sequence (Q9BZL6 1-878): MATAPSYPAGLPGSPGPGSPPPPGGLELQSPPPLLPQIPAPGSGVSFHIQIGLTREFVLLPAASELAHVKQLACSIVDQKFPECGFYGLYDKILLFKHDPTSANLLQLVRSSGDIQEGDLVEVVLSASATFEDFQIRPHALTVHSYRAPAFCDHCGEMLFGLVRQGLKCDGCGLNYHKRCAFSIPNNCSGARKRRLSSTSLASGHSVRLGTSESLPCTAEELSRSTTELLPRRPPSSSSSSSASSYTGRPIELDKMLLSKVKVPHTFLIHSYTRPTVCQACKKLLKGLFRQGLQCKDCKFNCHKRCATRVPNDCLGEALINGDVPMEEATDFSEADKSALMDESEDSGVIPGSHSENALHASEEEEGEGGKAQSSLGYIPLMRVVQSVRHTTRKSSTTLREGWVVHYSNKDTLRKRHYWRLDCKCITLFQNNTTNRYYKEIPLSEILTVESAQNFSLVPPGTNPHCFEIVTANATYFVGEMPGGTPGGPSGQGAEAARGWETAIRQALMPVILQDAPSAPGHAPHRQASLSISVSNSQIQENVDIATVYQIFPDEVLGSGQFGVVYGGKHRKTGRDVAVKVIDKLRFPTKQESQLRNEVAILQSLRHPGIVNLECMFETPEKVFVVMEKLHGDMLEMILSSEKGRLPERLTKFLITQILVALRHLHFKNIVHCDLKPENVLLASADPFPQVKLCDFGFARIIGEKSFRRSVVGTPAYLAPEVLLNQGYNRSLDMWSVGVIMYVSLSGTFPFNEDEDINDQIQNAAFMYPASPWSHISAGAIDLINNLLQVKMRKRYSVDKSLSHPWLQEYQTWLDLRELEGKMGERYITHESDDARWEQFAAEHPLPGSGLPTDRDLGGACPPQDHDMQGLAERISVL
# [6] = kinase LTK, 1 µmol/L single concentration
# [7] = kinase TXK, 1 µmol/L single concentration
# [8] = MER, 1 µmol/L single concentration
# [9] = kinase TSSK2, 1 µmol/L single concentration
# [10] = kinase PKD2, 1 µmol/L single concentration
SMILES,"inhibition at 1 µM [1, 6] [%]","inhibition at 1 µM [2, 7] [%]","inhibition at 1 µM [3, 8] [%]","inhibition at 1 µM [4, 9] [%]","inhibition at 1 µM [5, 10] [%]",inhibition at 1 µM [1] [%],inhibition at 1 µM [2] [%],inhibition at 1 µM [3] [%],inhibition at 1 µM [4] [%],inhibition at 1 µM [5] [%]
Cn1cnc2c(F)c(Nc3ccc(Br)cc3Cl)c(C(=O)NOCCO)cc21 [selumetinib],53,3.19,11,-4.25,-15,–,–,–,–,–
COc1ccc(CN2C3CC2CN(c2ccc(-c4cc(OCC(C)(C)O)cn5ncc(C#N)c45)cn2)C3)cn1 [selpercatinib],-3,54,88,-0.889,1.11,–,–,–,–,–
O=C(Nc1cnn2ccc(N3CCC[C@@H]3c3cc(F)ccc3F)nc12)N1CC[C@H](O)C1 [larotrectinib],16,16,6,-0.476,-6,–,–,–,–,–
CCN1C(=O)N(c2c(F)c(OC)cc(OC)c2F)Cc2cnc3[nH]c(CN4CCOCC4)cc3c21 [pemigatinib],1.66,-0.753,7,-3.21,4.44,–,–,–,–,–
CNC(=O)c1ccc(-c2cnc3ncc(Cc4ccc5ncccc5c4)n3n2)cc1F [capmatinib],–,–,–,–,–,49,2.34,13,-3.31,-7.47
FC(F)(F)c1ccc(CNc2ccc(Cc3c[nH]c4ncc(Cl)cc34)cn2)cn1 [pexidartinib],10,6.34,54,-0.308,-5,–,–,–,–,–
C[C@H](Nc1ncnc2nc[nH]c12)c1cc2cccc(Cl)c2c(=O)n1-c1ccccc1 [duvelisib],0.216,-0.177,-1,-1.37,-12,–,–,–,–,–
CO[C@]1(C(=O)N[C@@H](C)c2ccc(-n3cc(F)cn3)nc2)CC[C@H](c2nc(C)cc(Nc3cc(C)[nH]n3)n2)CC1 [pralsetinib],55,41,79,8,-9,–,–,–,–,–
Cc1cc(Nc2ncnc3ccc(NC4=NC(C)(C)CO4)cc23)ccc1Oc1ccn2ncnc2c1 [tucatinib],49,5,12,-0.922,44,–,–,–,–,–
Cn1cnc2c(F)c(Nc3ccc(Br)cc3F)c(C(=O)NOCCO)cc21 [binimetinib],0.411,-3,-2.19,-5,-7,–,–,–,–,–
Cc1nc(NC(=O)N2CCC[C@H]2C(N)=O)sc1-c1ccnc(C(C)(C)C(F)(F)F)c1 [alpelisib],-2.85,-4,-3.44,-6,-20,–,–,–,–,–
C=CC(=O)N1CCC([C@@H]2CCNc3c(C(N)=O)c(-c4ccc(Oc5ccccc5)cc4)nn32)CC1 [zanubrutinib],0.209,89,6,0.571,2.31,–,–,–,–,–
C[C@H]1Oc2cc(cnc2N)-c2c(nn(C)c2C#N)CN(C)C(=O)c2ccc(F)cc21 [lorlatinib],–,3.52,11,56,-11,–,–,–,–,–
CCN1CCN(c2ccc(Nc3cc(N(C)C(=O)Nc4c(Cl)c(OC)cc(OC)c4Cl)ncn3)cc2)CC1 [infigratinib],60,4.32,15,-3.74,-4.21,–,–,–,–,–
COC(=O)N[C@@H](C)CNc1nccc(-c2cn(C(C)C)nc2-c2cc(Cl)cc(NS(C)(=O)=O)c2F)n1 [encorafenib],0.605,-3.43,0.281,-2.44,2.49,–,–,–,–,–
CCc1nc(C(N)=O)c(Nc2ccc(N3CCC(N4CCN(C)CC4)CC3)c(OC)c2)nc1NC1CCOCC1 [gilteritinib],101,79,–,55,56,–,–,100,–,–
CN1CCN(c2ccc(C(=O)Nc3n[nH]c4ccc(Cc5cc(F)cc(F)c5)cc34)c(NC3CCOCC3)c2)CC1 [entrectinib],100,98,61,-7,-24,–,–,–,–,–
COc1cc2ncnc(Nc3ccc(F)c(Cl)c3)c2cc1NC(=O)/C=C/CN1CCCCC1 [dacomitinib],21,80,19,1.2,10,–,–,–,–,–
Cn1cc(-c2cc3c(N4CCN(c5ncc([C@@](C)(N)c6ccc(F)cc6)cn5)CC4)ncnn3c2)cn1 [avapritinib],51,20,17,1.35,-0.865,–,–,–,–,–
CCn1c(=O)c(-c2cc(NC(=O)Nc3ccccc3)c(F)cc2Br)cc2cnc(NC)cc21 [ripretinib],0.637,11,-11,-3.73,13,–,–,–,–,–

# Reference: paper PMC9516332 (Frontiers in Oncology, 2022)
